Experimental data taken from paper PMC6522510 (Nature Communications, 2019).
Read-outs that look alike come from different tables or passages of the source.

What was measured:
Experiment in all cases: Secondary dose-response HTS, Cell Titer Glo; call rule not given here
Type in all cases: cell-based, human
CHRF288-11 = test system: CHRF288-11
MOLM-13 = test system: MOLM-13
CMK = details: CMK
CMS = test system: CMS
MV4-11 = test system: MV4-11
ML2 = test system: ML2
U937 = test system: U937
M07e = test system: M07e
[1] = Homo sapiens, secondary HTS, 72 h, average of triplicate, read-out: EC50 CHRF288-11
[2] = Homo sapiens, MOLM-13, secondary HTS, 72 h, average of triplicate, read-out: EC50 MOLM-13
[3] = Homo sapiens, secondary HTS, 72 h, average of triplicate, read-out: EC50 CMK
[4] = Homo sapiens, secondary HTS, 72 h, average of triplicate, read-out: EC50 CMS
[5] = Homo sapiens, MV4-11, secondary HTS, 72 h, average of triplicate, read-out: EC50 MV4-11
[6] = Homo sapiens, ML-2, secondary HTS, 72 h, average of triplicate, read-out: EC50 ML2
[7] = Homo sapiens, U-937, secondary HTS, 72 h, average of triplicate, read-out: EC50 U937
[8] = Homo sapiens, M-07e, secondary HTS, 72 h, average of triplicate, read-out: EC50 M07e
[9] = secondary high-throughput screen, CHRF288-11
[10] = secondary high-throughput screen, MOLM-13
[11] = secondary high-throughput screen
[12] = secondary high-throughput screen, CMS
[13] = secondary high-throughput screen, MV4-11
[14] = secondary high-throughput screen, ML-2
[15] = secondary high-throughput screen, U937
[16] = secondary high-throughput screen, M07e
[17] = secondary high-throughput screen, MOLM-13, read-out: average effective concentration, MOLM-13
[18] = secondary high-throughput screen, MV4-11, read-out: average effective concentration, MV4-11
[19] = secondary high-throughput screen, U937, read-out: average effective concentration, U937
[20] = Homo sapiens, HTS, secondary high-throughput screen, CHRF288-11, read-out: average effective concentration, CHRF288-11
[21] = Homo sapiens, secondary high-throughput screen, read-out: average effective concentration, CMK
[22] = Homo sapiens, secondary high-throughput screen, ML-2, read-out: average effective concentration, ML-2
[23] = Homo sapiens, U-937, secondary high-throughput screen, U937, read-out: average effective concentration, U937
[24] = Homo sapiens, HTS, secondary high-throughput screen, CMS, read-out: average effective concentration, CMS
[25] = Homo sapiens, secondary high-throughput screen, MV4-11, read-out: average effective concentration, MV4-11
[26] = Homo sapiens, M-07e, secondary high-throughput screen, M07e, read-out: average effective concentration, M07e
[27] = Homo sapiens, secondary high-throughput screen, MOLM-13, read-out: average effective concentration, MOLM-13
[28] = Homo sapiens, read-out: average effective concentration, CMK
[29] = Homo sapiens, HTS, read-out: average effective concentration, CMS

EC50 (U937; [23]) [nM]	EC50 (MV4-11; [25]) [nM]	Structure (SMILES)	average effective concentration, CHRF288-11 (CHRF288-11; [9])	average effective concentration, MOLM-13 (MOLM-13; [10])	average effective concentration, CMK (CMK; [11])	average effective concentration, CMS (CMS; [12])	average effective concentration, MV4-11 (MV4-11; [13])	average effective concentration, ML-2 (ML2; [14])	average effective concentration, U937 (U937; [15])	average effective concentration, M07e (M07e; [16])	EC50 (CHRF288-11; [20]) [nM]	EC50 (CMK; [21]) [nM]	EC50 (ML2; [22]) [nM]	EC50 (CMS; [24]) [nM]	EC50 (M07e; [26]) [nM]	also measured
		O=C1c2c(O)ccc(O)c2C(=O)c2c(NCCNCCO)ccc(NCCNCCO)c21 [Mitoxantrone, reference compound]														EC50 (CHRF288-11; [1]): 20 nM; EC50 (MOLM-13; [2]): 10 nM; EC50 (CMK; [3]): 40 nM; EC50 (CMS; [4]): 80 nM; EC50 (MV4-11; [5]): 1 nM; EC50 (ML2; [6]): 240 nM; EC50 (U937; [7]): 30 nM; EC50 (M07e; [8]): 30 nM
		Cc1ccc(S(=O)(=O)n2c(N)nc3ccccc32)cc1 [NODINITIB-1]	Inactive	Inactive	Inactive	Inactive	Inactive	Inactive	Inactive	Inactive						
		O=c1cc(N2CCOCC2)oc2c1ccc1ccccc12 [NU 7026]	Inactive	Inactive	Inactive	Inactive	Inactive	Inactive	Inactive	Inactive						
		CC(C)(CCc1ccccc1)C(=O)Nc1ccc(C(=O)NO)cc1 [OSU-HDAC-44]			Inactive											EC50 (CHRF288-11; secondary high-throughput screen, CHRF288-11, read-out: average effective concentration, CHRF288-11): 1500 nM; EC50 (MOLM-13; [17]): 1300 nM; EC50 (CMS; secondary high-throughput screen, CMS, read-out: average effective concentration, CMS): 480 nM; EC50 (MV4-11; [18]): 290 nM; EC50 (ML2; secondary high-throughput screen, ML-2, read-out: average effective concentration, ML-2): 1400 nM; EC50 (U937; [19]): 490 nM; EC50 (M07e; secondary high-throughput screen, M07e, read-out: average effective concentration, M07e): 350 nM
11		COC[C@H](NC(=O)c1cnc(C)s1)C(=O)N[C@@H](COC)C(=O)N[C@@H](Cc1ccccc1)C(=O)[C@@]1(C)CO1 [Oprozomib, reference compound]									25	7.6	5			EC50 (CHRF288-11; [1]): 30 nM; EC50 (MOLM-13; [2]): 10 nM; EC50 (CMK; [3]): 10 nM; EC50 (CMS; [4]): 1 nM; EC50 (MV4-11; [5]): 10 nM; EC50 (ML2; [6]): 10 nM; EC50 (U937; [7]): 10 nM; EC50 (M07e; [8]): 10 nM
		COc1cccc(-c2cc(=O)c3ccccc3o2)c1N [PD 98059]	Inactive	Inactive	Inactive	Inactive	Inactive	Inactive	Inactive	Inactive						
		Cc1cc(I)ccc1Nc1c(C(=O)NOCC2CC2)cc(F)c(F)c1F [PD 198306]	Inactive	Inactive	Inactive	Inactive	Inactive	Inactive	Inactive	Inactive						
100	50	Cn1cc(-c2[nH]c3cc(NC(=O)[C@H](N)C4CCCCC4)cc4c3c2C=NNC4=O)cn1 [PF-477736]									1200		28		240	EC50 (MOLM-13; [27]): 18 nM; EC50 (CMK; [28]): 220 nM; EC50 (CMS; [29]): 6200 nM
		CN(C)C1CCN(C(=O)c2ccc(NC(=O)Nc3ccc(-c4nc(N5CCOCC5)nc(N5CCOCC5)n4)cc3)cc2)CC1 [PF-05212384]	Inactive			Inactive		Inactive		Inactive						EC50 (MOLM-13; [17]): 190 nM; EC50 (CMK; secondary high-throughput screen, read-out: average effective concentration, CMK): 7700 nM; EC50 (MV4-11; [18]): 47 nM; EC50 (U937; [19]): 24 nM
		Cc1ccc(C(=O)Nc2ccc(CN3CCN(C)CC3)c(C(F)(F)F)c2)cc1C#Cc1cnc2cccnn12 [PONATINIB]														EC50 (CHRF288-11; Homo sapiens, HTS, read-out: average effective concentration, CHRF288-11): 1000 nM; EC50 (CHRF288-11; read-out: average effective concentration, CHRF288-11): 980 nM; EC50 (MOLM-13; Homo sapiens, MOLM-13, read-out: average effective concentration, MOLM-13): 17 nM; EC50 (CMK; [28]): 1600 nM; EC50 (CMS; [29]): 6700 nM; EC50 (MV4-11; Homo sapiens, MV4-11, read-out: average effective concentration, MV4-11): 11 nM; EC50 (ML2; Homo sapiens, ML-2, read-out: average effective concentration, ML-2): 5300 nM; EC50 (U937; Homo sapiens, U-937, read-out: average effective concentration, U937): 2500 nM; EC50 (M07e; Homo sapiens, M-07e, read-out: average effective concentration, M07e): 7000 nM
		O=C(Nc1cc(Cl)cc2c1[nH]c1cnccc12)c1cccnc1 [PS-1145]	Inactive	Inactive	Inactive	Inactive	Inactive	Inactive	Inactive	Inactive						
		O=C1NC(=O)/C(=C/c2cccc(C(F)(F)F)c2)S1 [SMI-4A]	Inactive	Inactive	Inactive	Inactive	Inactive	Inactive	Inactive	Inactive						
		O=C([O-])Cc1ccccc1.[Na+] [SODIUM PHENYLACETATE]	Inactive		Inactive	Inactive	Inactive	Inactive	Inactive							EC50 (MOLM-13; [17]): 2100 nM; average effective concentration, M07e (M07e; secondary high-throughput screen, […]): Inactive
270	34	CCN(CC)CCNC(=O)c1c(C)[nH]c(/C=C2\C(=O)Nc3ccc(F)cc32)c1C [SUNITINIB]									490	330	270	> 10000	460	EC50 (MOLM-13; [27]): 19 nM
> 10000	3000	Nc1nc2nc[nH]c2c(=S)[nH]1 [THIOGUANINE]									3500	3800	6300	> 10000	> 10000	EC50 (MOLM-13; [27]): 4900 nM
690	170	CC[C@@]1(O)C(=O)OCc2c1cc1n(c2=O)Cc2cc3c(CN(C)C)c(O)ccc3nc2-1 [TOPOTECAN]									500	470	250	7200	1700	EC50 (MOLM-13; [27]): 120 nM
> 10000	1800	COc1cc(NCc2ccc3nc(N)nc(N)c3c2C)cc(OC)c1OC [TRIMETREXATE]									7600	4200	2900	1700	10000	EC50 (MOLM-13; [27]): 170 nM

Structure (SMILES)	EC50 (U937; [23]) [nM]	EC50 (MV4-11; [25]) [nM]	average effective concentration, CHRF288-11 (CHRF288-11; [9])	average effective concentration, MOLM-13 (MOLM-13; [10])	average effective concentration, CMK (CMK; [11])	average effective concentration, CMS (CMS; [12])	average effective concentration, MV4-11 (MV4-11; [13])	average effective concentration, ML-2 (ML2; [14])	average effective concentration, U937 (U937; [15])	average effective concentration, M07e (M07e; [16])	EC50 (CHRF288-11; [20]) [nM]	EC50 (CMK; [21]) [nM]	EC50 (ML2; [22]) [nM]	EC50 (CMS; [24]) [nM]	EC50 (M07e; [26]) [nM]	also measured
C[C@@H]1O[C@@H](O[C@H]2C[C@@H](O)[C@]3(CO)[C@H]4[C@H](O)C[C@]5(C)[C@@H](C6=CC(=O)OC6)CC[C@]5(O)[C@@H]4CC[C@]3(O)C2)[C@H](O)[C@H](O)[C@H]1O [Ouabain, reference compound]	41	38									43		31	46	64	EC50 (CHRF288-11; [1]): 40 nM; EC50 (MOLM-13; [2]): 30 nM; EC50 (CMK; [3]): 180 nM; EC50 (CMS; [4]): 50 nM; EC50 (MV4-11; [5]): 40 nM; EC50 (ML2; [6]): 30 nM; EC50 (U937; [7]): 40 nM; EC50 (M07e; [8]): 60 nM
COC(=O)[C@]1(C)CC[C@]2(C)CC[C@]3(C)C4=CC=C5C(=CC(=O)C(O)=C5C)[C@]4(C)CC[C@@]3(C)[C@@H]2C1 [PRISTIMERIN]	800			Inactive			Inactive				240	240	120	1500		EC50 (M07e; Homo sapiens, M-07e, secondary high-throughput screen, […], read-out: average effective concentration, M07e): 4600 nM
